According to patent publication US20170281575A1, “BLT2 AGONISTS FOR THE TREATMENT OF PAIN” (FRAUNHOFER-GESELLSCHAFT ZUR FÖERDERUNG DER ANGEWANDTEN …, priority 2014, published 2017):

Assays:
mice = assay: Thermal pain thresholds after intraplantar injection (Hargreaves, radiant heat); type: in vivo; conditions: CAY10583 10 μl, 5 μM intraplantarly, compared to vehicle
Procedure: FIG. 5: BLT2 activation decreases thermal pain thresholds in mice. CAY10583 (10 μl, 5 μM) or vehicle was administered intraplantarly. Thermal thresholds were determined at the indicated time points. Data are presented as mean±S.E.M. of 6 animals. Two way ANOVA/Bonferroni *P<0.05, **P<0.005, ****P<0.0005.
All animal experiments were performed according to the recommendations in the Guide for the Care and Use of Laboratory Animals of the National Institutes of Health and approved by the local Ethics Committees for Animal Research (Darmstadt). For all behavioral experiments the inventors used only 6-12 weeks old male C57BL/6N mice purchased from commercial breeding companies (Charles River, Sulzfeld, Germany, Janvier, Le Geneset-Saint-Isle, FR). To compare mechanical thresholds the inventors used age and sex matched littermates as control.
For the determination of mechanical allodynia or thermal hypersensitivity, mice were kept in test cages on an elevated grid for at least 2 hours to allow accommodation. […] The non-injected and injected paws were measured alternately in intervals of 5-10 min. […]

TRPV1 = assay: Calcium imaging of capsaicin double-stimulated DRG neurons (TRPV1 sensitization); type: cell-based, murine; conditions: for effect on TRPV1 sensitization by LTB4 (100 nM or 1 μM), FIG. 3 legend: U73502 1 μM; for effect on TRPV1 sensitization by LTB4 (100 nM or 1 μM), FIG. 3 legend / effect on TRPV1 sensitization induced by 100 nM LTB4: CAY10583 400 nM; for effect on TRPV1 sensitization induced by 100 nM LTB4: U75302 1 μM, 2 minute pretreatment
Procedure: (A) DRG neurons were double stimulated with capsaicin (200 nM, 15 s each) and incubated with either vehicle or LTB4 (100 nM) for two minutes prior to the second capsaicin stimulation. (B) Dose-dependent difference in ratio between the first and the second capsaicin response using the same protocol as described in (A). Data represent the mean±SEM of the following number of neurons (n=20-86); ANOVA Kruskal-Wallis test; Dunn's multiple comparisons test *p<0.05, ****p<0.0001 student's t-test.
FIG. 3: BLT1 mediates TRPV1-sensitization and BLT2 mediates TRPV1-desensitization by LTB4. (A) DRG neurons were double stimulated with capsaicin (200 nM, 15 s each) and incubated with either vehicle or the indicated compounds for two minutes prior to the second capsaicin stimulation. […] Data represent mean±SEM 20-105 cells. ANOVA Kruskal-Wallis test; Dunn's multiple comparisons test *p<0.05, **p<0.01, ****p<0.0001 student's t-test; n.s. not significant.
FIG. 4: BLT2 activation inhibits […] by EP4 and Bradykinin. (A) DRG neurons were double stimulated with capsaicin (200 nM, 15 s each) and incubated with either the EP4 agonist ONOae329 (500 nM) or with ONOae329 and CAY10583 (400 nM) together for two minutes prior to the second capsaicin stimulation. (B) Difference in ratio between the first and the second capsaicin response using the same protocol as described in panel A. Data represent the mean±SEM of the following number of neurons: 52 (vehicle), 109 (ONOae329), 106 (ONOae329+CAY10583); One-Way ANOVA, Dunn's multiple comparisons test; **p<0.0096. (C+D) same as panel A+B except that 500 nM bradykinin was used for TRPV1 sensitization. Data represent the mean±SEM of the following number of neurons: 33 (vehicle), 83 (bradykinin), 93 (bradykinin+CAY10583); One-Way ANOVA, Holm-Sidak's multiple comparisons test; *p=0.0126
Murine DRGs were dissected from spinal segments and directly transferred to ice cold HBSS with CaCl2 and MgCl2 (Invitrogen, Carsbad, Calif., USA). Next, isolated DRGs were incubated with collagenase/dispase (500 U/ml Collagenase; 2.5 U/ml Dispase) in neurobasal medium containing L-glutamine [2 mM] penicillin (100 U/ml), streptomycin (100 μg/ml), B-27 and gentamicin (50 μg/ml) (all from Invitrogen, Carlsbad, Calif., USA) at 37° C. for 75 min. After removal of the collagenase/dispase-solution, cells were washed twice with neurobasal medium containing 10% FCS and incubated for 10 min with 0.05% trypsin (Invitrogen, Carlsbad, Calif., USA). The washing steps were repeated and the cells were mechanically dissociated with a 1 ml Gilson pipette. Finally, the neurons were plated on poly-l-lysine (Sigma, Deisenhofen, Germany) coated glass cover slips and incubated with neurobasal medium containing L-glutamine [2 mM] penicillin (100 U/ml), streptomycin (100 μg/ml), B-27 and gentamicin (50 μg/ml) over night until assessment by calcium imaging.
Calcium-Imaging experiments were performed as published previously. Briefly, Leica Calcium-imaging setup was used, consisting of a Leica DMI 4000 b inverted microscope equipped with a DFC360 FX (CCD-) camera, Fura-2 filters and an N-Plan 10×/0.25 Ph1 objective (all from Leica Microsystems, Wetzlar, Germany). Images were taken every 2 seconds and processed with the LAS AF-software. For each experiment the inventors chose an area with large cell numbers and monitored 40-110 cells simultaneously. Calcium-Imaging experiments were performed using DRG-neurons 24-48 hours after preparation. […]

[1] = DRG neurons, capsaicin 200 nM, LY2552833 10 μM

**Q.** Which results are given for `CCCCC(=O)N(Cc1ccc(-c2ccccc2C(=O)O)cc1)c1ccccc1` [CAY10583, 4′-[[(1-oxopentyl)phenylamino]methyl]-[1,1′-biphenyl]-2-carboxylic acid]?
**A.** thermal pain thresholds (mice): significantly increase; effect on bradykinin-induced sensitization of TRPV1 through PKC (TRPV1; DRG neurons, 500 nM bradykinin with CAY10583 400 nM): significantly decreased; effect on TRPV1 sensitization by LTB4 (100 nM or 1 μM), FIG. 3 legend (TRPV1; DRG neurons, LY2552833 10 μM): reduced; effect by itself on capsaicin-induced TRPV1 activation (TRPV1; DRG neurons, capsaicin 200 nM, CAY10583 400 nM alone): no effect; effect on TRPV1 sensitization induced by 100 nM LTB4 (TRPV1; [1]): abolished; effect on ONOae329-induced TRPV1 sensitization (TRPV1; murine DRG neurons, ONOae329 500 nM together with CAY10583 400 nM): abolished

**Q.** Which results are given for `CCCCC/C=C\C[C@@H](O)/C=C/C=C/C=C\[C@@H](O)CCCC(=O)O` [LTB4, Leucotriene (LT) B4]?
**A.** TRPV1 sensitization in DRG neurons, dose dependence, FIG. 1 legend (TRPV1; DRG neurons, capsaicin 200 nM double stimulation): dose dependently sensitizes TRPV1; enhanced response (TRPV1 sensitization) at higher LTB4 concentrations (TRPV1; murine DRG neurons, 200-1000 nM LTB4 prior to second capsaicin stimulation): reduced; capsaicin-induced intracellular calcium increases (TRPV1; murine DRG neurons, preincubation with 100 nM LTB4 for two minutes prior to second capsaicin (200 nM) stimulation): doubled

**Q.** How did the “effect on TRPV1 sensitization by LTB4 (100 nM or 1 μM), FIG. 3 legend” value (TRPV1; DRG neurons, LY2552833 10 μM) turn out when `CCc1cc(C(C)=O)c(O)cc1OCCCCCC(C)(C)c1nn[nH]n1` [LY2552833] was run?
**A.** increases TRPV1 sensitization

**Q.** And the “effect on TRPV1 sensitization by 1000 nM LTB4” value (TRPV1; [1])?
**A.** increased

**Q.** What about the “effect on TRPV1 sensitization induced by 100 nM LTB4” value (TRPV1; [1]) of the same compound?
**A.** no significant effect

**Q.** With `COCc1ccccc1CC[C@H](O)/C=C/[C@H]1[C@H](O)CC(=O)[C@@H]1SCCCSCC(=O)O` [ONOae329] as the compound, how does the “sensitization of TRPV1 responses to capsaicin” value (TRPV1; murine DRG neurons, pretreatment with ONOae329 500 nM) read?
**A.** strong sensitization

**Q.** How did the “effect on TRPV1 sensitization by LTB4 (100 nM or 1 μM), FIG. 3 legend” value (TRPV1; DRG neurons, LY2552833 10 μM) turn out when `CCCCC/C=C\C[C@@H](O)/C=C/c1cccc(C[C@@H](O)CCCCO)n1` [U75302, 6-(6-(3R-hydroxy-1E,5Z-undecadien-1-yl)-2-pyridinyl)-1,5S-hexanediol] was run?
**A.** reduced

**Q.** And the “effect on TRPV1 sensitization induced by 100 nM LTB4” value (TRPV1; [1])?
**A.** able to abolish
